In patent publication US9695155B2, “Herbicidal substituted pyrimidinyloxy benzene compounds” (E. I. DU PONT DE NEMOURS AND COMPANY, priority 2013, dated 2017):

What was measured:
kochia = assay: Test D postemergence; assay type: in vivo, Kochia scoparia; settings: Bassia scoparia, post-emergence; for pest or weed control at 16 g/ha: 16 g ai/ha, scale 0-100, read-out: Plant response rating, Kochia; for pest or weed control at 31 g/ha: 31 g ai/ha; for pest or weed control at 31 g/ha / pest or weed control at 62 g/ha / pest or weed control at 125 g/ha: scale 0 to 100 (0 no effect, 100 complete control), read-out: Plant response rating, Kochia; for pest or weed control at 62 g/ha: 62 g ai/ha; for pest or weed control at 125 g/ha: 125 g ai/ha
Procedure, shortened: (§1)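 Visual ratings from 0 (no effect) to 100 (complete control) relative to untreated plants were taken 7–21 days after treatment. Chemicals in a surfactant-containing solvent mixture were applied preemergence to seeds in silt loam, or postemergence to plants 2–18 cm tall (1–4 leaves) grown in a peat-based potting medium.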

chickweed = assay: Test D preemergence; assay type: in vivo, Stellaria media; settings: Stellaria media, pre-emergence; for pest or weed control at 16 g/ha: 16 g ai/ha, scale 0 (no effect) to 100 (complete control), read-out: Plant response rating, Chickweed; for pest or weed control at 31 g/ha: 31 g ai/ha; for pest or weed control at 31 g/ha / pest or weed control at 62 g/ha / pest or weed control at 125 g/ha: scale 0-100, read-out: Plant response rating, Chickweed; for pest or weed control at 62 g/ha: 62 g ai/ha; for pest or weed control at 125 g/ha: 125 g ai/ha
Procedure, shortened: as §1

speedwell = assay: Test D postemergence; assay type: in vivo, Veronica persica; settings: Veronica persica, post-emergence; for pest or weed control at 16 g/ha: 16 g ai/ha, scale 0-100, read-out: Plant response rating, Speedwell; for pest or weed control at 31 g/ha: 31 g ai/ha; for pest or weed control at 31 g/ha / pest or weed control at 62 g/ha / pest or weed control at 125 g/ha: scale 0 to 100 (0 no effect, 100 complete control), read-out: Plant response rating, Speedwell; for pest or weed control at 62 g/ha: 62 g ai/ha; for pest or weed control at 125 g/ha: 125 g ai/ha
Procedure, shortened: as §1

Italian ryegrass = assay: Test D postemergence; assay type: in vivo, Lolium multiflorum; settings: Lolium multiflorum, post-emergence; for pest or weed control at 16 g/ha: 16 g ai/ha, scale 0-100, read-out: Plant response rating, Ryegrass, Italian; for pest or weed control at 31 g/ha: 31 g ai/ha; for pest or weed control at 31 g/ha / pest or weed control at 62 g/ha / pest or weed control at 125 g/ha: scale 0 to 100 (0 no effect, 100 complete control), read-out: Plant response rating, Ryegrass, Italian; for pest or weed control at 62 g/ha: 62 g ai/ha; for pest or weed control at 125 g/ha: 125 g ai/ha
Procedure, shortened: as §1

deadnettle = assay: Test D preemergence; assay type: in vivo, Lamium amplexicaule; settings: Lamium amplexicaule, pre-emergence; for pest or weed control at 16 g/ha: 16 g ai/ha, scale 0 (no effect) to 100 (complete control), read-out: Plant response rating, Deadnettle; for pest or weed control at 31 g/ha: 31 g ai/ha; for pest or weed control at 31 g/ha / pest or weed control at 62 g/ha / pest or weed control at 125 g/ha: scale 0-100, read-out: Plant response rating, Deadnettle; for pest or weed control at 62 g/ha: 62 g ai/ha; for pest or weed control at 125 g/ha: 125 g ai/ha
Procedure, shortened: as §1

galium = assay: Test D postemergence; assay type: in vivo, Galium aparine; settings: Galium, post-emergence; for pest or weed control at 16 g/ha: 16 g ai/ha, scale 0-100, read-out: Plant response rating, Galium; for pest or weed control at 31 g/ha: 31 g ai/ha; for pest or weed control at 31 g/ha / pest or weed control at 62 g/ha / pest or weed control at 125 g/ha: scale 0 to 100 (0 no effect, 100 complete control), read-out: Plant response rating, Galium; for pest or weed control at 62 g/ha: 62 g ai/ha; for pest or weed control at 125 g/ha: 125 g ai/ha
Procedure, shortened: as §1

blackgrass = assay: Test D postemergence; assay type: in vivo, Alopecurus myosuroides; settings: Alopecurus myosuroides, post-emergence, Postemergence, scale 0 to 100 (0 no effect, 100 complete control), read-out: Plant response rating, Blackgrass; for pest or weed control at 62 g/ha: 62 g ai/ha; for pest or weed control at 16 g/ha: 16 g ai/ha; for pest or weed control at 31 g/ha: 31 g ai/ha; for pest or weed control at 125 g/ha: 125 g ai/ha
Procedure, shortened: as §1

field violet = assay: Test D preemergence; assay type: in vivo, Viola arvensis; settings: Viola arvensis, pre-emergence; for pest or weed control at 16 g/ha: 16 g ai/ha, scale 0 (no effect) to 100 (complete control), read-out: Plant response rating, Field Violet; for pest or weed control at 31 g/ha: 31 g ai/ha; for pest or weed control at 31 g/ha / pest or weed control at 62 g/ha / pest or weed control at 125 g/ha: scale 0-100, read-out: Plant response rating, Field Violet; for pest or weed control at 62 g/ha: 62 g ai/ha; for pest or weed control at 125 g/ha: 125 g ai/ha
Procedure, shortened: as §1

wild buckwheat = assay: Test D postemergence; assay type: in vivo, Polygonum convolvulus; settings: Fallopia convolvulus, post-emergence, Postemergence, scale 0 to 100 (0 no effect, 100 complete control), read-out: Plant response rating, Buckwheat, Wild; for pest or weed control at 16 g/ha: 16 g ai/ha; for pest or weed control at 31 g/ha: 31 g ai/ha; for pest or weed control at 62 g/ha: 62 g ai/ha; for pest or weed control at 125 g/ha: 125 g ai/ha
Procedure, shortened: as §1

| SMILES | pest or weed control at 16 g/ha (kochia) | pest or weed control at 31 g/ha (kochia) | pest or weed control at 62 g/ha (kochia) | pest or weed control at 125 g/ha (kochia) | pest or weed control at 16 g/ha (chickweed) | pest or weed control at 31 g/ha (chickweed) | pest or weed control at 62 g/ha (chickweed) | pest or weed control at 125 g/ha (chickweed) | pest or weed control at 16 g/ha (speedwell) | pest or weed control at 31 g/ha (speedwell) | pest or weed control at 62 g/ha (speedwell) | pest or weed control at 125 g/ha (speedwell) | pest or weed control at 16 g/ha (Italian ryegrass) | pest or weed control at 31 g/ha (Italian ryegrass) | pest or weed control at 62 g/ha (Italian ryegrass) | pest or weed control at 125 g/ha (Italian ryegrass) | pest or weed control at 16 g/ha (deadnettle) | pest or weed control at 31 g/ha (deadnettle) | pest or weed control at 62 g/ha (deadnettle) | pest or weed control at 125 g/ha (deadnettle) | other results |
| --- | --- | --- | --- | --- | --- | --- | --- | --- | --- | --- | --- | --- | --- | --- | --- | --- | --- | --- | --- | --- | --- |
| FC(F)(F)COc1cnn(-c2ccccc2Oc2ncc(Cl)cn2)c1 [Compound 138, 5-chloro-2-[2-[4-(2,2,2-trifluoroethoxy)-1H-pyrazol-1-yl]phenoxy]pyrimidine] | 25% | 40% | 55% | 75% | 100% | 100% | 100% | 100% | 70% | 70% | 75% | 75% | 5% | 0% | 0% | 5% | 5% | 5% | 20% | 30% | pest or weed control at 16 g/ha (galium): 70%; pest or weed control at 31 g/ha (galium): 70%; pest or weed control at 62 g/ha (galium): 75%; pest or weed control at 125 g/ha (galium): 75%; pest or weed control at 62 g/ha (blackgrass): 10%; pest or weed control at 16 g/ha (blackgrass): 5%; pest or weed control at 31 g/ha (blackgrass): 5%; pest or weed control at 125 g/ha (blackgrass): 15%; pest or weed control at 16 g/ha (field violet): 70%; pest or weed control at 31 g/ha (field violet): 25%; pest or weed control at 62 g/ha (field violet): 70%; pest or weed control at 125 g/ha (field violet): 75%; pest or weed control at 16 g/ha (wild buckwheat): 65%; pest or weed control at 31 g/ha (wild buckwheat): 70%; pest or weed control at 62 g/ha (wild buckwheat): 65%; pest or weed control at 125 g/ha (wild buckwheat): 80% |
| FC(F)(F)c1cn(-c2ccccc2Oc2ncc(Cl)cn2)nn1 [Compound 166, 5-chloro-2-[2-[4-(trifluoromethyl)-1H-1,2,3-triazol-1-yl]phenoxy]pyrimidine] | 65% | 65% | 90% | 95% | 85% | 95% | 95% | 100% | 70% | 85% | 100% | 100% | 10% | 20% | 25% | 40% | 70% | 75% | 100% | 100% | pest or weed control at 16 g/ha (galium): 70%; pest or weed control at 31 g/ha (galium): 75%; pest or weed control at 62 g/ha (galium): 80%; pest or weed control at 125 g/ha (galium): 90%; pest or weed control at 62 g/ha (blackgrass): 40%; pest or weed control at 16 g/ha (blackgrass): 15%; pest or weed control at 31 g/ha (blackgrass): 20%; pest or weed control at 125 g/ha (blackgrass): 65%; pest or weed control at 16 g/ha (field violet): 70%; pest or weed control at 31 g/ha (field violet): 100%; pest or weed control at 62 g/ha (field violet): 100%; pest or weed control at 125 g/ha (field violet): 100%; pest or weed control at 16 g/ha (wild buckwheat): 70%; pest or weed control at 31 g/ha (wild buckwheat): 95%; pest or weed control at 62 g/ha (wild buckwheat): 95%; pest or weed control at 125 g/ha (wild buckwheat): 100% |
| Fc1cccc(Oc2ncc(Cl)cn2)c1-n1cc(Br)cn1 [Compound 178, 2-[2-(4-bromo-1H-pyrazol-1-yl)-3-fluorophenoxy]-5-chloropyrimidine] | 60% | 70% | 75% | 85% | 0% | 50% | 85% | 90% | 70% | 80% | 100% | 100% | 0% | 0% | 5% | 15% | 50% | 60% | 75% | 100% | pest or weed control at 16 g/ha (galium): 75%; pest or weed control at 31 g/ha (galium): 75%; pest or weed control at 62 g/ha (galium): 75%; pest or weed control at 125 g/ha (galium): 80%; pest or weed control at 62 g/ha (blackgrass): 25%; pest or weed control at 16 g/ha (blackgrass): 5%; pest or weed control at 31 g/ha (blackgrass): 10%; pest or weed control at 16 g/ha (field violet): 20%; pest or weed control at 62 g/ha (field violet): 90%; pest or weed control at 125 g/ha (field violet): 100%; pest or weed control at 16 g/ha (wild buckwheat): 65%; pest or weed control at 31 g/ha (wild buckwheat): 75%; pest or weed control at 62 g/ha (wild buckwheat): 75%; pest or weed control at 125 g/ha (wild buckwheat): 85% |
